# Like-named read-outs stand apart in the source and are kept apart here.
# Legend:
# [1] = test system: Daudi cell line (AID positive); experiment: Primary screening cell killing assay (Cell-Titer Glo, Day 7); type: cell-based; settings: Homo sapiens, 168 h; Daudi cells (AID positive), cell death on Day 7; read-out: AID+ EC50
# Experimental: (§1) Primary screening was a phenotypic screen that utilized the synthetic lethal interaction between AID and RAD51 to identify compounds that were both potent and on target. AID expressing cells are dependent upon RAD51 for survival; inhibiting RAD51 in AID positive cells results in a cytotoxic effect.
# The first step was to set up a cell killing assay in the Daudi cell line (AID positive). A 96 well u-bottom plate was prepared by writing the experiment number, plate number, date and initials in the top right corner of the plate lid. With a sterile 300 ml reservoir, and 25 ml serological pipette, evaporation buffer media was pipetted into reservoir in 25 ml increments. Using the liquid handler, 150 ul of evaporation buffer media was pipetted from reservoir into rows A and H, and Columns 1 and 12 of the 96 well u-bottom plate. Cell cultures were counted to obtain the density of cells per ml, and the culture viability. The cell density information was used to obtain 1,000,000 cells from culture using a 5 mL serological pipette into an epi tube. The cell density information from the culture was used to calculate the number of cells and volume of media needed for the assay to seed 1250 cells in 130 ul of media per available culture well in the 96 well u-bottom plate. Rows B through F were used for cells (50 wells in total), with row G left for an empty media control. The calculation was overestimated by 10 mL to account for the dead volume in the 300 ml reservoir. Once the media volume was calculated, the appropriate volume of media was pipetted in 25 mL increments into the 250 mL bottle using a 25 mL serological pipette. The 250 ml bottle was capped tightly, and placed into a 37° C. water bath for 2 minutes. While the culture media was warming, 10 mL of fresh media was pipetted from the 500 mL culture media bottle into a sterile 25 mL reservoir. Using the Eppendorf multichannel pipette, 130 ul of media was piptted from the 25 mL reservoir into row G of the 96 well u-bottom plate. Once the 250 mL bottle of media was warmed, the volume of culture needed was pipetted into the bottle, and mixed gently with a 25 mL serological pipette as to not create bubbles, and then the contents of the bottle were pipetted into a new 300 mL reservoir. Using the liquid handler, 130 ul of culture was pipetted from the 300 mL reservoir into rows B through F of the 96 well u-bottom plate. Once the culture was added, the plate was placed into a 37° C. incubator until the compound master plate was prepared for use.
# Two 96 well u-bottom plates were prepared by writing the master plate name in the upper right corner of the plate lid. Labeling one DMSO master and the other Media Master. The compounds of interest were obtained from the laboratory freezer, and placed into a 25 well storage box with a lid, and set the box aside. The compounds were vortexed after thawing but before use. Using an automatic multichannel pipette, 20 ul of 100% DMSO was pipetted into wells B3-B11 through G3-G11 of the DMSO master plate. For each compound on the master plate, 50 ul of the compound were pipetted in the appropriate well of row 2 (reference plate map to determine appropriate well). A serial dilution was prepared beginning by aspirating 20 ul from row 2 and mixing with row 3, repeating until row 11 was reached. Using the liquid handler, 194 ul of Daudi media was dispensed into wells B2-B11 through G2-G11 of the Media master plate. Using the liquid handler, 6 ul from the DMSO master plate was aspirated and dispensed into the media master plate, mixing 100 ul twice.
# Compounds from master plate were then added to the culture plate. The culture plates were removed from the incubator, and set inside the biosafety cabinet. Using a liquid handler, 20 ul from wells B2 to B11 through G2 to G11 of master plate were aspirated, and dispensed into wells B2 to B11 through G2 to G11 of culture plate. This set was continued with each culture plate. […]
# [2] = Bi-directional Caco-2 permeability; type: in vitro ADME; settings: human; for Papp A→B / Papp B→A: Caco-2, 37 C, up to 90 minutes; for Papp A→B: apical to basolateral, read-out: AB Papp (cm/sec × 10^6); for Papp B→A: basolateral to apical, read-out: BA Papp (cm/sec × 10^6); for efflux ratio: Caco-2 efflux ratio, read-out: BA/AB Ratio
# Experimental: Bi-directional Caco-2 permeability was assayed. Caco-2 cells were seeded onto permeable polycarbonate supports and allowed to differentiate for about 3 weeks prior to being used in the assays. The cells were then exposed to the compounds from either the apical or basolateral sides and incubated at 37 C for up to 90 minutes under light agitation. Compound transport was then measured using LC/MS/MS analysis at 30, 60, and 90 minutes.
# [3] = test system: WI-38 cells (AID negative); experiment: Primary screening cell killing assay repeated in AID negative cells; type: cell-based, Human; settings: WI-38 cells (AID negative); read-out: AID− EC50
# Experimental: as §1
# Percent cell death and EC50 values were calculated by comparing the cell viability of the compound treated wells to the non-treated wells. Normalized RLU values were obtained by subtracting the media well values from each of the wells in the same column, and then dividing that value by the DMSO treated cells values. The percent kill was then calculated by subtracting the normalized RLU value from 1 and multiplying by 100. The average normalized percent kill value and standard error of the mean was then calculated. The kill values were then inputted into Prism with the corresponding standard errors. In Prism a non-linear regression line was plotted with the data points using a semi-log scale, and the EC50 value was calculated.
# The activity of the claimed compounds was measured in a variety of cell lines with different expression levels of activation induced cytidine deaminase (AICDA). The potency assay was repeated in all of the listed cell lines and the EC50 values recorded.
# [4] = Caco-2, apical to basolateral, read-out: AB Recovery %
# [5] = Caco-2, basolateral to apical, read-out: BA Recovery %
Compound,EC50 [1] [nM],"recovery at 90 min [2, 4] [%]","recovery at 90 min [2, 5] [%]",further results
CC(C)OC(=O)Nc1ccc(-c2cnc(C3CC[C@@H](NC(=O)OC(C)C)CO3)s2)c(S(=O)(=O)NC(C)(C)C)c1 (mixture of isomers) [Compound 60],≤ 1000,,,
CC(C)OC(=O)Nc1ccc(-c2cnc([C@@H]3CC[C@@H](NC(=O)OC(C)C)CN3)s2)c(S(=O)(=O)NC(C)(C)C)c1 (relative stereo) [Compound 63],≤ 1000,,,
CC(C)OC(=O)Nc1ccc(-c2cnc(C3CCC(NC(=O)OC4CCCC4)CC3)s2)c(S(=O)(=O)NC(C)(C)C)c1 (centres unmarked) [Compound 7],≤ 1000,55.9,92,Papp A→B [2]: 1.7 ×10⁻⁶ cm/s; Papp B→A [2]: 2.1 ×10⁻⁶ cm/s; efflux ratio [2]: 1.2
CC(C)OC(=O)Nc1ccc(-c2cnc(C3CCC(NC(=O)OC[C@@H]4CCCN4C)CC3)s2)c(S(=O)(=O)NC(C)(C)C)c1 (some centres unmarked) [Compound 9],≤ 1000,,,
CN1CCC[C@@H]1COC(=O)NC1CCC(c2ncc(-c3ccc(NC(=O)NCc4ccccc4)cc3S(=O)(=O)NC(C)(C)C)s2)CC1 (some centres unmarked) [Compound 11],≤ 1000,,,
CN1CCC[C@H]1COC(=O)N[C@H]1CC[C@H](c2ncc(-c3ccc(NC(=O)NCc4ccccc4)cc3S(=O)(=O)NC(C)(C)C)s2)CC1 [Compound 12],≤ 1000,,,
CC(C)OC(=O)Nc1ccc(-c2cnc(C34CCC(NC(=O)OC(C)C)(CC3)CC4)s2)c(S(=O)(=O)NC(C)(C)C)c1 [Compound 17],≤ 1000,,,
CC(C)NC(=O)OC1CCC(c2ncc(-c3ccc(NC(=O)OC(C)C)cc3S(=O)(=O)NC(C)(C)C)s2)CC1 (centres unmarked) [Compound 20],> 1000,44.8,96.6,Papp A→B [2]: 9.4 ×10⁻⁶ cm/s; Papp B→A [2]: 10.4 ×10⁻⁶ cm/s; efflux ratio [2]: 1.1
CC(C)NC(=O)OC1CCC(c2ncc(-c3ccc(NC(=O)NCc4ccccc4)cc3S(=O)(=O)NC(C)(C)C)s2)CC1 (centres unmarked) [Compound 21],≤ 100,58.6,78.3,
CC(C)OC(=O)NC1CCC(c2ncc(-c3ccc(NC(=O)NCc4ccncc4)cc3S(=O)(=O)NC(C)(C)C)s2)CC1 (centres unmarked) [Compound 22],≤ 1000,83.1,89,Papp A→B [2]: 1.1 ×10⁻⁶ cm/s; Papp B→A [2]: 21 ×10⁻⁶ cm/s; efflux ratio [2]: 18.7
CC(C)OC(=O)NC1CCC(c2ncc(-c3ccc(NC(=O)NCc4ccc(F)cc4)cc3S(=O)(=O)NC(C)(C)C)s2)CC1 (centres unmarked) [Compound 23],≤ 100,,,
CC(C)OC(=O)NC1CCC(c2ncc(-c3ccc(NC(=O)NCc4cccnc4)cc3S(=O)(=O)NC(C)(C)C)s2)CC1 (centres unmarked) [Compound 25],≤ 100,,,
CC(C)OC(=O)NC1CCC(c2ncc(-c3ccc(NC(=O)NCc4ccccc4F)cc3S(=O)(=O)NC(C)(C)C)s2)CC1 (centres unmarked) [Compound 28],≤ 100,66.9,81,
CC(C)OC(=O)NC1CCC(c2ncc(-c3ccc(NC(=O)OCC4CCNCC4)cc3S(=O)(=O)NC(C)(C)C)s2)CC1 (centres unmarked) [Compound 33],> 1000,,,
CC(C)OC(=O)NC1CCC(c2ncc(-c3ccc(NC(=O)OC[C@H]4CCCN4C)cc3S(=O)(=O)NC(C)(C)C)s2)CC1 (some centres unmarked) [Compound 34],≤ 1000,98.2,96.8,
CC(C)OC(=O)NC1CCC(c2ncc(-c3ccc(NC(=O)OC[C@@H]4CCCN4C)cc3S(=O)(=O)NC(C)(C)C)s2)CC1 (some centres unmarked) [Compound 35],≤ 1000,98.8,108,
CC(C)OC(=O)NC1CCC(c2ncc(-c3ccc(NC(=O)OC[C@H]4CCCN4)cc3S(=O)(=O)NC(C)(C)C)s2)CC1 (some centres unmarked) [Compound 36],≤ 1000,,,
CC(C)OC(=O)NC1CCC(c2ncc(-c3ccc(NC(=O)OC[C@@H]4CCCN4)cc3S(=O)(=O)NC(C)(C)C)s2)CC1 (some centres unmarked) [Compound 37],≤ 1000,,,
CC(C)OC(=O)NC1CCC(c2ncc(-c3ccc(NC(=O)O[C@@H](C)c4ccccc4)cc3S(=O)(=O)NC(C)(C)C)s2)CC1 (some centres unmarked) [Compound 41],,,,EC50 [3]: > 1000 nM
CC(C)OC(=O)Nc1ccc(-c2cnc(C3CCC(NC(=O)OC(C)(C)C)CC3)s2)c(S(=O)(=O)NC(C)(C)C)c1 (centres unmarked) [Compound 44],> 1000,36.2,69.4,Papp A→B [2]: 3.2 ×10⁻⁶ cm/s; Papp B→A [2]: 4.2 ×10⁻⁶ cm/s; efflux ratio [2]: 1.3
CC(C)(C)NS(=O)(=O)c1cc(NC(=O)NCc2ccccn2)ccc1-c1cnc(C2CCC(NC(=O)OC(C)(C)C)CC2)s1 (centres unmarked) [Compound 45],≤ 100,73.6,84.4,Papp A→B [2]: 7.6 ×10⁻⁶ cm/s; Papp B→A [2]: 10.8 ×10⁻⁶ cm/s; efflux ratio [2]: 1.4
CC(C)OC(=O)Nc1ccc(-c2cnc(C3CCC(NC(=O)OC4COC4)CC3)s2)c(S(=O)(=O)NC(C)(C)C)c1 (centres unmarked) [Compound 48],≤ 1000,,,
COc1cc(NC(=O)OC(C)C)cnc1-c1ncc(-c2ccc(NC(=O)OCC3CCNCC3)cc2S(=O)(=O)NC(C)(C)C)s1 [Compound 56],≤ 1000,,,
CC(C)OC(=O)Nc1ccc(-c2sc(C3CCC(NC(=O)OC(C)C)CC3)nc2F)c(S(=O)(=O)NC(C)(C)C)c1 (centres unmarked) [Compound 58],≤ 1000,,,
CC(C)OC(=O)N[C@@H]1CC[C@@H](c2ncc(-c3ccc(NC(=O)NCc4ccccc4)cc3S(=O)(=O)NC(C)(C)C)s2)OC1 [Compound 59A],≤ 1000,,,
CC(C)OC(=O)Nc1ccc(-c2cnc([C@H]3CC[C@H](NC(=O)OC(C)C)CO3)s2)c(S(=O)(=O)NC(C)(C)C)c1 [Compound 60B],≤ 1000,,,
CC(C)OC(=O)Nc1ccc(-c2cnc(C3CC(NC(=O)OC(C)C)C3)s2)c(S(=O)(=O)NC(C)(C)C)c1 (centres unmarked) [Compound 65],≤ 1000,,,
CC(C)OC(=O)N[C@H]1CC[C@@H](c2ncc(-c3ccc(NC(=O)NCc4ccccc4)cc3S(=O)(=O)NC(C)(C)C)s2)CC1 [Compound 66B],≤ 1000,,,
C=S(=O)(NC(C)(C)C)c1cc(NC(=O)NCc2ccccc2)ccc1-c1cnc(N2CCC(NC(=O)OC(C)C)CC2)s1 (centres unmarked) [Compound 68],≤ 1000,,,

# From US11607404B2, “Combinations of RAD51 and PARP inhibitors” (Cyteir Therapeutics, Inc., priority 2019, dated 2023)
